Reference: article PMC10914731, “Homo-BacPROTAC-induced degradation of ClpC1 as a strategy against drug-resistant mycobacteria” (Nature Communications, 2024)
Converted amounts (≈) assume the structure as drawn. “And” between values parts separate entries of the source, which are not always exact repeats. Equal entries are not always repeated. Where two headings read alike, the source gives them in different places. *1 amine or outer side, *2 acyl side, *3 side chain or, on linkers, in order; H or OH if unused. Where a SMILES comes first, the peptide text is derived from it. [ ]: non-standard residue; d: D form. X1 = C#CCn1cc(C[C@H](N[*:1])C(=O)[*:2])c2ccccc21; NMeLeu(5-OH,4R) = CN[C@@H](C[C@@H](C)CO)C(=O)O; NMeL = CN[C@@H](CC(C)C)C(=O)O

Tests used:
[1] = system: Mtb # 11291; experiment: microbe, parasite or virus in culture; type: cell-based; conditions: for MIC: read-out: MIC Mtb # 11291
[2] = system: Mtb # 8673; experiment: microbe, parasite or virus in culture; type: cell-based
[3] = system: Mtb ATCC 35825; experiment: microbe, parasite or virus in culture; type: cell-based
[4] = system: Mycobacterium avium; experiment: microbe, parasite or virus in culture; type: cell-based
[5] = system: Mycobacterium abscessus; experiment: microbe, parasite or virus in culture; type: cell-based
[6] = system: Mycobacterium fortuitum; experiment: microbe, parasite or virus in culture; type: cell-based
[7] = system: Mycobacterium intracellulare; experiment: microbe, parasite or virus in culture; type: cell-based
[8] = target: ClpC1 NTD protein (M. tuberculosis) (Mycobacterium tuberculosis, UniProt P9WPC9); experiment: biochemical; type: binding
ClpC1 NTD protein (M. tuberculosis), sequence (P9WPC9 1-156, looked up, natural form): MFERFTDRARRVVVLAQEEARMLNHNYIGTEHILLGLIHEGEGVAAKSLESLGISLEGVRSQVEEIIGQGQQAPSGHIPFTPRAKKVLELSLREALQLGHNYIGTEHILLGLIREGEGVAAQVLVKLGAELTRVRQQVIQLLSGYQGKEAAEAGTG

[9] = in vitro; conditions: human; for Papp A→B: apical to basolateral; for Papp B→A: basolateral to apical
Summary of the method: (§1)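 Values are bidirectional Caco-2 apparent permeabilities, P(A−B) and P(B−A), given in 10^-6 cm s-1. The efflux ratio divides P(B−A) by P(A−B), and intrinsic permeability averages the two directions.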

[10] = system: Caco-2 monolayers; experiment: in vitro
Summary of the method: as §1

[11] = type: in vitro ADME, Mice
Description: (§2) The kinetics of compound degradation in liver microsomes is assessed in an assay with 1 µmol/l of compound and 0.5 mg/ml liver microsomes in a medium of 100 mM Tris-HCl pH 7.5, 6.5 mM MgCl2 and 1 mM NADPH at 37 °C. The reaction is stopped at multiple time points by adding acetonitrile. After centrifugation, the compound concentration is measured in the supernatants by high-performance liquid chromatography (HPLC) tandem mass spectrometry (MS/MS). The results are fitted to a first-order decay and the half-lives are converted to clearance (stated as % of the liver blood flow (%Qh)) using the well-stirred liver model.

[12] = type: in vitro ADME, Rat
Description: as §2

[13] = Microsomal stability, human; type: in vitro ADME
Description: as §2

[14] = Hepatocyte stability, mice; type: in vitro ADME; conditions: clearance in hepatocytes
Summary of the method: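 1 µM cpd (DMSO <0.05% final), cryopreserved hepatocytes ~1e6 cells/mL, 50% serum, pH 7.4, 37 °C/5–10% CO2; up to 6 h, 6 timepoints; ACN quench, HPLC-MS/MS; t1/2 → CL via well-stirred model, % Qh.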

[15] = type: in vitro ADME, Rat; remark: listed apart in the source
[16] = type: in vitro ADME, Human
[17] = Mycobacterium tuberculosis, mean, n = 2 well replicates
[18] = Mycobacterium tuberculosis, single well replicates
[19] = Mycobacterium tuberculosis, ATCC35825, mean, n = 2 well replicates
[20] = Mycobacterium tuberculosis, ATCC35825, single well replicates
[21] = Experiment 2, three replicate columns

NCC[C@H](O)C(=O)N[C@@H]1C[C@H](N)[C@@H](O[C@H]2O[C@H](CN)[C@@H](O)[C@H](O)[C@H]2O)[C@H](O)[C@H]1O[C@H]1O[C@H](CO)[C@@H](O)[C@H](N)[C@H]1O [Amikacin, reference compound]
MIC [1, 17]: 3.4 µM and 2 µg/mL | MIC [1, 18]: 3.42 µM and 2 µg/mL | MIC Mtb # 11291 ([1]; single well replicates): 2 µg/mL (≈ 3.42 µM) | MIC ([1]; single well replicates): 3.42 µM (≈ 2 µg/mL) | MIC [2, 17]: > 219 µM and > 128 µg/mL | MIC [2, 18]: > 219 µM and > 128 µg/mL | MIC ([2]; single well replicates): >218.58 µM | MIC Mtb # 8673 ([2]; single well replicates): >128 µg/mL | MIC [3, 19]: 0.1 µM and 0.03 µg/mL | MIC [3, 20]: 0.03 µg/mL and 0.05 µM | MIC ([3]; single well replicates): 0.05 µM (≈ 0.0293 µg/mL) | MIC Mtb ATCC 35825 ([3]; single well replicates): 0.03 µg/mL (≈ 0.0512 µM) | MIC (µg/ml) Mycobacterium avium [4, 21]: 1 µg/mL (≈ 1.71 µM) | MIC ([4]; Experiment 2, three replicate columns, read-out: MIC (µM) Mycobacterium avium): 1.71 µM | MIC ([4]; Mycobacterium avium, Experiment 2, three replicate columns, read-out: MIC (µM) Mycobacterium avium): 1.71 µM | MIC ([4]; Mycobacterium avium, Experiment 2, three replicate columns, read-out: MIC (µg/ml) Mycobacterium avium): 1 µg/mL | MIC ([4]; Mycobacterium avium, mean ± SD, read-out: MIC Mycobacterium avium): 1.7 µM | MIC (µg/ml) Mycobacterium abscessus [5, 21]: 2 µg/mL (≈ 3.42 µM) | MIC ([5]; Experiment 2, three replicate columns, read-out: MIC (µM) Mycobacterium abscessus): 3.42 µM | MIC ([5]; Mycobacteroides abscessus, Experiment 2, three replicate columns, read-out: MIC (µM) Mycobacterium abscessus): 3.42 µM | MIC ([5]; Mycobacteroides abscessus, Experiment 2, three replicate columns, read-out: MIC (µg/ml) Mycobacterium abscessus): 2 µg/mL | MIC ([5]; Mycobacteroides abscessus, mean ± SD, read-out: MIC Mycobacterium abscessus): 3.4 µM | MIC (µg/ml) Mycobacterium fortuitum [6, 21]: 0.25 µg/mL (≈ 0.427 µM) | MIC ([6]; Experiment 2, three replicate columns, read-out: MIC (µM) Mycobacterium fortuitum): 0.43 µM | MIC ([6]; Mycolicibacterium fortuitum, Experiment 2, three replicate columns, read-out: MIC (µM) Mycobacterium fortuitum): 0.43 µM | MIC ([6]; Mycolicibacterium fortuitum, Experiment 2, three replicate columns, read-out: MIC (µg/ml) Mycobacterium fortuitum): 0.25 µg/mL | MIC ([6]; Mycolicibacterium fortuitum, mean ± SD, read-out: MIC Mycobacterium fortuitum): 0.4 µM | MIC (µg/ml) Mycobacterium intracellulare [7, 21]: 0.50 µg/mL (≈ 0.854 µM) | MIC ([7]; Experiment 2, three replicate columns, read-out: MIC (µM) Mycobacterium intracellulare): 0.85 µM | MIC ([7]; Mycobacterium intracellulare, Experiment 2, three replicate columns, read-out: MIC (µM) Mycobacterium intracellulare): 0.85 µM | MIC ([7]; Mycobacterium intracellulare, Experiment 2, three replicate columns, read-out: MIC (µg/ml) Mycobacterium intracellulare): 0.5 µg/mL | MIC ([7]; Mycobacterium intracellulare, mean ± SD, read-out: MIC Mycobacterium intracellulare): 0.9 µM

C#CCn1cc(C[C@@H]2NC(=O)[C@H](C(C)C)NC(=O)[C@H](CC(C)C)N(C)C(=O)[C@H](C(C)C)NC(=O)[C@H](Cc3ccccc3)NC(=O)[C@H](C)NC(=O)[C@H](C[C@@H](C)CO)N(C)C2=O)c2ccccc21 [SI-72] (cyclo(AFV[NMeL]V[X1][NMeLeu(5-OH,4R)]))
Kd ([8]; SPR (Supplementary Table 1), read-out: KD ClpC1-NTD Mean ± SD): 14 ± 6 nM | koff ClpC1-NTD ([8]; SPR, single independent measurements): 0.05 s⁻¹ | Kd ([8]; SPR, single independent measurements, read-out: KD ClpC1-NTD): 17.7 nM and 9.9 nM | koff ([8]; SPR, single independent measurements, read-out: koff ClpC1-NTD): 0.07 s⁻¹ | efflux ratio ([9]; Caco-2): 61.4 | Papp A→B ([9]; Caco-2, CACO permeability PEAB): 0.17 ×10⁻⁶ cm/s | Papp B→A ([9]; Caco-2, CACO permeability PEBA): 15 ×10⁻⁶ cm/s | Papp A→B ([9]; Caco-2, Caco-2 permeability P (A-B)): 0.2 ×10⁻⁶ cm/s | Papp B→A ([9]; Caco-2, Caco-2 permeability P (B-A)): 12.5 ×10⁻⁶ cm/s | CACO permeability PEAB ([10]; apical to basolateral): 0.29000000000000003 ×10⁻⁶ cm/s | CACO permeability PEBA ([10]; basolateral to apical): 9.999999999999999 ×10⁻⁶ cm/s | Caco-2 Int. Perm ([10]; mean value of P(A−B) and P(B−A)): 6.4 10-6 cm s-1 | Microsomal Stability Mouse QH ([11]; Mouse): >88.400% | Microsomal Stability Mice ([11]; clearance in microsomes): > 88 %Qh | Microsomal Stability Rat QH ([12]; Rat): 87.300% | Microsomal Stability Rat ([12]; clearance in microsomes): 87 %Qh | Microsomal Stability Human QH ([13]; Human): >88.400% | Microsomal Stability Human ([13]; clearance in microsomes): > 88 %Qh | Hepatocyte Mice [14]: 71 %Qh | Hepatocyte Stability Rat QH ([15]; Rat): 81.5% and 81.75% | Hepatocyte Rat ([15]; clearance in hepatocytes): 82 %Qh | Hepatocyte Stability Human QH ([16]; Human): 23.35% and 19.57% | Hepatocyte Human ([16]; clearance in hepatocytes): 12 %Qh

[H]/N=C(/N)N[C@H]1[C@H](O)[C@@H](O)[C@H](O[C@@H]2O[C@@H](C)[C@](O)(C=O)[C@H]2O[C@@H]2O[C@@H](CO)[C@H](O)[C@@H](O)[C@@H]2NC)[C@@H](N/C(N)=N\[H])[C@@H]1O [Streptomycin]
MIC [1, 17]: 0.4 µM and 0.3 µg/mL | MIC [1, 18]: 0.43 µM and 0.25 µg/mL | MIC Mtb # 11291 ([1]; single well replicates): 0.25 µg/mL (≈ 0.43 µM) | MIC ([1]; single well replicates): 0.43 µM (≈ 0.25 µg/mL) | MIC [2, 17]: 6.9 µM and 4 µg/mL | MIC [2, 18]: 6.88 µM and 4 µg/mL | MIC ([2]; single well replicates): 6.88 µM (≈ 4 µg/mL) | MIC Mtb # 8673 ([2]; single well replicates): 4 µg/mL (≈ 6.88 µM) | MIC [3, 19]: 27.5 µM and 16 µg/mL | MIC [3, 20]: 16 µg/mL and 27.5 µM | MIC ([3]; single well replicates): 27.51 µM (≈ 16 µg/mL) | MIC Mtb ATCC 35825 ([3]; single well replicates): 16 µg/mL (≈ 27.5 µM)

CC(=O)Nc1ccc(/C=N/NC(N)=S)cc1 [Thiacetazone]
MIC [1, 17]: 4.2 µM and 1 µg/mL | MIC [1, 18]: 4.23 µM and 1 µg/mL | MIC Mtb # 11291 ([1]; single well replicates): 1 µg/mL (≈ 4.23 µM) | MIC ([1]; single well replicates): 4.23 µM (≈ 1 µg/mL) | MIC [2, 17]: > 542 µM and > 128 µg/mL | MIC [2, 18]: > 542 µM and > 128 µg/mL | MIC ([2]; single well replicates): >541.68 µM | MIC Mtb # 8673 ([2]; single well replicates): >128 µg/mL | MIC [3, 19]: 4.2 µM and 1 µg/mL | MIC [3, 20]: 1 µg/mL and 4.23 µM | MIC ([3]; single well replicates): 4.23 µM (≈ 1 µg/mL) | MIC Mtb ATCC 35825 ([3]; single well replicates): 1 µg/mL (≈ 4.23 µM)

Nc1ccc(C(=O)O)c(O)c1 [p-Aminosalicylic acid]
MIC Mtb # 11291 ([1]; single well replicates): 1 µg/mL (≈ 6.53 µM) | MIC ([1]; single well replicates): 6.53 µM (≈ 1 µg/mL) | MIC [2, 17]: 6.5 µM and 1 µg/mL | MIC [2, 18]: 6.53 µM and 1 µg/mL | MIC ([2]; single well replicates): 6.53 µM (≈ 1 µg/mL) | MIC Mtb # 8673 ([2]; single well replicates): 1 µg/mL (≈ 6.53 µM) | MIC [3, 19]: 104 µM and 16 µg/mL | MIC [3, 20]: 16 µg/mL and 104 µM | MIC ([3]; single well replicates): 104.48 µM (≈ 16 µg/mL) | MIC Mtb ATCC 35825 ([3]; single well replicates): 16 µg/mL (≈ 104 µM)
